Reference: patent US7973051B2 (Hoffman-La Roche Inc., priority 2007, dated 2011)

target: T1, human liver FBPase (Homo sapiens, UniProt P09467); assay: FBPase assay: inorganic phosphate release (malachite green); assay type: biochemical; conditions: recombinant human liver FBPase, 50 μM fructose-1,6-bisphosphate, read-out at 620 nm
T1 construct: made in house; host or cells: E. coli
T1 sequence (P09467 2-338 limits assumed): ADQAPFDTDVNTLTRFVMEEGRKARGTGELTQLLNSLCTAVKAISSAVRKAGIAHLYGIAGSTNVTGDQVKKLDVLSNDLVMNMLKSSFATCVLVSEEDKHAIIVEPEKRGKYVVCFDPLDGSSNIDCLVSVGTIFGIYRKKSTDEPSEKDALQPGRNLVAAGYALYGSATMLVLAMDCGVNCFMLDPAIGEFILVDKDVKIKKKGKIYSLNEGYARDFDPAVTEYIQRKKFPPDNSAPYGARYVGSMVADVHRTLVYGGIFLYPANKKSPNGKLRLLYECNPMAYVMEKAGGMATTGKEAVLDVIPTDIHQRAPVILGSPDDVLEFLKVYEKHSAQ
How it was run: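 Recombinant human liver FBPase (E. coli-expressed, >90% pure), 25 ng per reaction, with 50 μM fructose-1,6-bisphosphate in 50 mM HEPES-KOH pH 7.2, 2 mM MgCl2, 2 mM EDTA, 1 mM DTT, 1% DMSO. After 50 min at room temperature, released phosphate was complexed with malachite green/ammonium molybdate and read at 620 nm.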

IC50 [nM]	SMILES
501	COCc1nc(NC(=O)NS(=O)(=O)c2cc(C)c(CCOC(C)=O)s2)sc1SC [Example 87, 2-{5-[({[4-(Methoxymethyl)-5-(methylthio)-1,3-thiazol-2-yl]carbamoyl}amino)sulfonyl]-3-methyl-2-thienyl}ethyl acetate]
369	COCc1nc(NC(=O)NS(=O)(=O)c2cc(C)c(CCO)s2)sc1SC [Example 88, 5-(2-Hydroxyethyl)-N-{[4-(methoxymethyl)-5-(methylthio)-1,3-thiazol-2-yl]carbamoyl}-4-methylthiophene-2-sulfonamide]
263	COCCc1sc(S(=O)(=O)NC(=O)Nc2nc3c(OC)cccc3s2)cc1C [Example 89, N-[(4-Methoxy-1,3-benzothiazol-2-yl)carbamoyl]-5-(2-methoxyethyl)-4-methylthiophene-2-sulfonamide]
842	COCCc1sc(S(=O)(=O)NC(=O)Nc2nc3ccc(OC)nc3s2)cc1C [Example 90, 5-(2-Methoxyethyl)-N-[(5-methoxy[1,3]thiazolo[5,4-b]pyridin-2-yl)carbamoyl]-4-methylthiophene-2-sulfonamide]
375	COCCc1sc(S(=O)(=O)NC(=O)Nc2nc3c(C)cccc3s2)cc1C [Example 91, 5-(2-Methoxyethyl)-4-methyl-N-[(4-methyl-1,3-benzothiazol-2-yl)carbamoyl]thiophene-2-sulfonamide]
38	COc1ccc(Cl)c2sc(NC(=O)NS(=O)(=O)c3cc(C)c(CCO)s3)nc12 [Example 92, N-[(7-Chloro-4-methoxy-1,3-benzothiazol-2-yl)carbamoyl]-5-(2-hydroxyethyl)-4-methylthiophene-2-sulfonamide]
141	COc1cccc2sc(NC(=O)NS(=O)(=O)c3cc(C)c(CCO)s3)nc12 [Example 93, 5-(2-Hydroxyethyl)-N-[(4-methoxy-1,3-benzothiazol-2-yl)carbamoyl]-4-methylthiophene-2-sulfonamide]
64	Cc1cc(S(=O)(=O)NC(=O)Nc2nc3c(C)cccc3s2)sc1CCO [Example 94, 5-(2-Hydroxyethyl)-4-methyl-N-[(4-methyl-1,3-benzothiazol-2-yl)carbamoyl]thiophene-2-sulfonamide]
594	COc1sc(NC(=O)NS(=O)(=O)c2csc(C)c2)nc1C [Example 95, N-[(5-Methoxy-4-methyl-1,3-thiazol-2-yl)carbamoyl]-5-methylthiophene-3-sulfonamide]
637	COCCc1sc(S(=O)(=O)NC(=O)Nc2nc(C)c(OC)s2)cc1C [Example 96, 5-(2-Methoxyethyl)-N-[(5-methoxy-4-methyl-1,3-thiazol-2-yl)carbamoyl]-4-methylthiophene-2-sulfonamide]
652	COCCc1sc(S(=O)(=O)NC(=O)Nc2ncc(OC)s2)cc1C [Example 97, 5-(2-Methoxyethyl)-N-[(5-methoxy-1,3-thiazol-2-yl)carbamoyl]-4-methylthiophene-2-sulfonamide]
177	Cc1cc(S(=O)(=O)NC(=O)Nc2nc(C)c(SC(F)(F)F)s2)sc1CCO [Example 98, 6-(2-Hydroxyethyl)-4-methyl-N-({4-methyl-5-[(trifluoromethyl)thio]-1,3-thiazol-2-yl}carbamoyl)thiophene-2-sulfonamide]
